Results from patent publication US7211422B2, “Polypeptide having α-isomaltosylglucosaccharide synthase activity” (Kabushiki Kaisha Hayashibara Seibutsu Kagaku Kenkyujo, priority 2001, dated 2007).

Legend:
[1] = tested on: α-isomaltosylglucosaccharide-forming enzyme from Arthrobacter globiformis A19; assay: Action on saccharides (TLC before and after enzymatic reaction); type: biochemical; set-up: key: −: it showed no change; +: it showed a slight reduction of the color spot of the substrate and the formation of other reaction product; ++: it showed a high reduction of the color spot of the substrate and the formationof other reaction product; +++: it showed a substantial disappearance of the substrate spot and the formation of other reaction product; settings: two units/g substrate, substrate 2% (w/v), 30° C., pH 8.4, 24 hours
Method: (§1) It was tested whether saccharides can be used as substrates for the polypeptide of α-isomaltosylglucosaccharide-forming enzyme of the present invention. For the purpose, a solution of maltose, maltotriose, maltotetraose, maltopentaose, maltohexaose, maltoheptaose, isomaltose, isomaltotriose, panose, isopanose, trehalose, kojibiose, nigerose, neotrehalose, cellobiose, gentibiose, maltitol, maltotriitol, lactose, sucrose, erlose, selaginose, maltosyl glucoside, or isomaltosyl glucoside was prepared.
(§2) To each of the above solutions was added two units/g substrate of a purified polypeptide specimen of α-isomaltosylglucosaccharide-forming enzyme from either Bacillus globisporus C11 obtained by the method in Experiment 1-3, Bacillus globisporus N75 obtained by the method in Experiment 2-3, or Arthrobacter globiformis A19 obtained by the method in Experiment 3-3, and the resulting each solution was adjusted to give a substrate concentration of 2% (w/v) and incubated at 30° C. and pH 6.0, except for using pH 8.4 for the enzyme from Arthrobacter globiformis A19, for 24 hours. In order to analyze the saccharides in the reaction mixture before and after the enzymatic reaction, silica gel thin-layer chromatography (hereinafter, abbreviated as “TLC”) was carried out. After two-times development using, as a developer, a mixture solution of n-butanol, pyridine, and water (=6:4:1), and, as a thin-layer plate, “KIESELGEL 60”, an aluminum plate (20×20 cm) for TLC commercialized by Merck & Co., Inc., Rahway, USA, the saccharides in the reaction mixture were examined whether the enzyme acted or not by the coloration of sugars by the sulfuric acid-methanol method.

[2] = tested on: α-isomaltosylglucosaccharide-forming enzyme from Bacillus globisporus C11; assay: as above; type: biochemical; set-up: key: −: it showed no change; +: it showed a slight reduction of the color spot of the substrate and the formation of other reaction product; ++: it showed a high reduction of the color spot of the substrate and the formationof other reaction product; +++: it showed a substantial disappearance of the substrate spot and the formation of other reaction product; settings: two units/g substrate, substrate 2% (w/v), 30° C., pH 6.0, 24 hours
Method: as §1, §2

[3] = tested on: α-isomaltosylglucosaccharide-forming enzyme from Bacillus globisporus N75; assay: as above; type: biochemical; set-up: key: −: it showed no change; +: it showed a slight reduction of the color spot of the substrate and the formation of other reaction product; ++: it showed a high reduction of the color spot of the substrate and the formationof other reaction product; +++: it showed a substantial disappearance of the substrate spot and the formation of other reaction product; settings: two units/g substrate, substrate 2% (w/v), 30° C., pH 6.0, 24 hours
Method: as §1, §2

[4] = tested on: polypeptide having α-isomaltosylglucosaccharide-forming enzyme activity; assay: Action on saccharides, summary in words for the polypeptide in general; type: biochemical; settings: summary of Table 7
Method: as §1, §2

[5] = tested on: polypeptide having α-isomaltosylglucosaccharide-forming enzyme activity, obtained in Experiment 1-3; assay: Reaction product from maltooligosaccharide (sugar composition by HPLC); type: biochemical, Bacillus globisporus C11; set-up: unit not given here; settings: 1% (w/v) substrate, 35° C., pH 6.0, 8 hours; for Sugar composition of reaction mixture, substrate Maltopentaose: 0.1 unit/g-solid; for Sugar composition of reaction mixture, substrate Maltotetraose: 0.2 unit/g-solid; for Sugar composition of reaction mixture, substrate Maltotriose / Sugar composition of reaction mixture, substrate Mlatose: two units/g-solid
Method: To an aqueous solution containing one percent (w/v) of maltose, maltotriose, maltotetraose, or maltopentaose as a substrate was added the polypeptide having α-isomaltosylglucosaccgaride-forming enzyme activity, obtained in Experiment 1-3, in an amount of two units/g-solid for maltose and maltotriose, 0.2 unit/g-solid for maltotetraose, and 0.1 unit/g-solid for maltopentaose, followed by incubation at 35° C. and pH 6.0 for 8 hours. After stopping the enzymatic reaction by a 10-minutes incubation, sugar compositions in the reaction mixture were measured by HPLC using “YMC Pack ODS-AQ303”, a column commercialized by YMC Co., Ltd., Tokyo, Japan, at a column temperature of 40° C. and a flow rate of 0.5 ml/minutes of water, and using as a detector “RI-8012”, a differential refractometer commercialized by Tosoh Corporation, Tokyo, Japan.

Molecule: OC[C@H]1O[C@@](CO)(O[C@H]2O[C@H](CO)[C@@H](O[C@H]3O[C@H](CO)[C@@H](O)[C@H](O)[C@H]3O)[C@H](O)[C@H]2O)[C@@H](O)[C@@H]1O [Erlose, erlose]
- Enzyme action, A19 enzyme [1]: +
- Enzyme action, C11 enzyme [2]: +
- Enzyme action, N75 enzyme [3]: +
- Action of the polypeptide on the saccharide (in words) [4]: slightly acted

Molecule: OC[C@H]1O[C@H](O[C@H]2C(O)O[C@H](CO)[C@@H](O)[C@@H]2O)[C@H](O)[C@@H](O)[C@@H]1O (stereo partly shown) [Kojibiose, kojibiose]
- Enzyme action, A19 enzyme [1]: +
- Enzyme action, C11 enzyme [2]: +
- Enzyme action, N75 enzyme [3]: +
- Action of the polypeptide on the saccharide (in words) [4]: slightly acted

Molecule: OC[C@H]1O[C@H](O[C@H]2[C@H](O)[C@@H](O)[C@H](O)O[C@@H]2CO)[C@H](O)[C@@H](O)[C@@H]1O [Maltose, maltose]
- Enzyme action, A19 enzyme [1]: +
- Enzyme action, C11 enzyme [2]: +
- Enzyme action, N75 enzyme [3]: +
- Action of the polypeptide on the saccharide (in words) [4]: slightly acted
- Sugar composition of reaction mixture, substrate Maltopentaose [5]: 0.0
- Sugar composition of reaction mixture, substrate Maltotetraose [5]: 0.3
- Sugar composition of reaction mixture, substrate Maltotriose [5]: 17.9
- Sugar composition of reaction mixture, substrate Mlatose [5]: 78.0

Molecule: OC[C@@H](O)[C@@H](O[C@H]1O[C@H](CO)[C@@H](O[C@H]2O[C@H](CO)[C@@H](O)[C@H](O)[C@H]2O)[C@H](O)[C@H]1O)[C@H](O)[C@@H](O)CO [Maltotriitol, maltotriitol]
- Enzyme action, A19 enzyme [1]: +
- Enzyme action, C11 enzyme [2]: +
- Enzyme action, N75 enzyme [3]: +
- Action of the polypeptide on the saccharide (in words) [4]: slightly acted

Molecule: OC[C@H]1O[C@@H](O[C@H]2O[C@H](CO)[C@@H](O)[C@H](O)[C@H]2O)[C@H](O)[C@@H](O)[C@@H]1O [Neotrehalose, neotrehalose]
- Enzyme action, A19 enzyme [1]: +
- Enzyme action, C11 enzyme [2]: +
- Enzyme action, N75 enzyme [3]: +
- Action of the polypeptide on the saccharide (in words) [4]: slightly acted

Molecule: OC[C@H]1O[C@H](O[C@H]2[C@H](O)[C@@H](CO)OC(O)[C@@H]2O)[C@H](O)[C@@H](O)[C@@H]1O (stereo partly shown) [Nigerose, nigerose]
- Enzyme action, A19 enzyme [1]: +
- Enzyme action, C11 enzyme [2]: +
- Enzyme action, N75 enzyme [3]: +
- Action of the polypeptide on the saccharide (in words) [4]: slightly acted

Molecule: maltohexaose
- Enzyme action, A19 enzyme [1]: +++
- Enzyme action, C11 enzyme [2]: +++
- Enzyme action, N75 enzyme [3]: +++
- Sugar composition of reaction mixture, substrate Maltopentaose [5]: 4.6
- Sugar composition of reaction mixture, substrate Maltotetraose [5]: 0.0
- Sugar composition of reaction mixture, substrate Maltotriose [5]: 0.0
- Sugar composition of reaction mixture, substrate Mlatose [5]: 0.0

Molecule: maltopentaose
- Enzyme action, A19 enzyme [1]: +++
- Enzyme action, C11 enzyme [2]: +++
- Enzyme action, N75 enzyme [3]: +++
- Sugar composition of reaction mixture, substrate Maltopentaose [5]: 34.4
- Sugar composition of reaction mixture, substrate Maltotetraose [5]: 3.5
- Sugar composition of reaction mixture, substrate Maltotriose [5]: 0.0
- Sugar composition of reaction mixture, substrate Mlatose [5]: 0.0

Molecule: maltotriose
- Enzyme action, A19 enzyme [1]: ++
- Enzyme action, C11 enzyme [2]: ++
- Enzyme action, N75 enzyme [3]: ++
- Sugar composition of reaction mixture, substrate Maltopentaose [5]: 1.9
- Sugar composition of reaction mixture, substrate Maltotetraose [5]: 22.7
- Sugar composition of reaction mixture, substrate Maltotriose [5]: 45.3
- Sugar composition of reaction mixture, substrate Mlatose [5]: 0.8
